# Measured values as given in US20100311726A1, “REDUCTION OF BETA-AMYLOID LEVELS BY TREATMENT WITH THE SMALL MOLECULE DIFFERENTIATION-INDUCING FACTOR” (priority 2007, published 2010).
# Key:
# APP ubiquitin-conjugates = APP ubiquitin-conjugates by immunoprecipitation and western blot; settings: CHO-CAB
# Description: For immunoprecipitations, 1 mg of total protein was diluted with extraction buffer and precleared with protein G-conjugated agarose beads (Pierce). The precleared samples were incubated overnight with anti-APP antibodies or nonimmune IgG (Jackson Laboratories). Immunocomplexes were captured with Protein G agarose beads, washed five times with extraction buffer and heated for 5 min at 95° C. in SDS gel-loading buffer.
# CHO-CAB cell protein extracts (1 mg) were immunoprecipitated using APP antibodies. The immunoprecipitated complexes were analyzed by western blotting using anti-ubiquitin antibodies. […] Molecular Weight markers (kDa) are shown on the left. GAPDH levels are shown below each blot. The data represents that of three separate experiments.
# To determine whether the proteasome-mediated degradation of APP is accompanied by increased levels of poly-ubiquitinated APP, we investigated the ubiquitination status of APP in extracts of CHO-CAB cells treated in the absence or presence of DIF-1 (30 μM), lactacystin (10 μM), ALLN (10 μM), DIF-1+lactacystin and DIF-1+ALLN.
# human APLP1 = assay: APLP1 metabolism by western blot in CHO-A1 cells; format: cell-based; settings: 30 μM DIF-1 or 250 nM DAPT, ~20 hours
# Description: CHO cells that stably express human APLP1, which is a closely related family member of the APPs and known γ-secretase substrate (Eggert et al., 2004), were treated with 30 μM DIF-1, DAPT or DIF-1 plus DAPT (FIG. 7). Equal numbers of CHO-A1 cells stably expressing human APLP1 cells were plated in 6-well dishes and allowed to grow overnight. The next day, the media was removed and replaced with control media (2 ml) or media containing DAPT, DIF-1 or DAPT and DIF-1. […] After washing, blots were probed with HRP-conjugated secondary antibodies (1:5000) for 1 hour at room temperature.
# CHO-7W cells = assay: Flow cytometry cell cycle distribution, CHO-7W; format: cell-based, Chinese Hamster; settings: 25 μM
# Description: Naïve and CHO-7W cells were collected by trypsin/EDTA treatment and counted using a haemocytometer. The cells (1×10^5) were deposited into 10 cm tissue culture dishes containing fresh media and grown for 24 hours prior to DIF-1 treatment (25 μM). Cells were grown in the presence of DIF-1 for approximately 20 hours. Cells harvested by the trypsin/EDTA treatment were suspended in hypotonic fluorochrome solution containing 50 ug/ml of propidium iodide, 0.1% sodium citrate, and 0.1% Triton X-100. Cells (5×10^4) for each sample were analyzed for fluorescence using the Massachusetts General Hospital cytology core. Cell cycle distribution was compared between vehicle and DIF-1 treated nave CHO cells, and CHO-7W cells. The percentage of cells in G0/G1, S-phase and G2/M represents the mean cell number±the standard deviation from at least 3 separate experiments.
# CHO/APP cells were incubated with DIF-1 (25 μM) for the indicated periods and then harvested, fixed and stained with propidium iodide (PI) and fluorescence of nuclei was measured. Histogram peaks are labeled by phases. The percentages of cell number in the cell cycle phases are shown as means+/−S.E. of three independent experiments performed in duplicate. The effects of DIF-1 on CHO-7W cell growth is also a result of G0/G1 cell cycle block (50.1%±1.1) as measured by flow cytometry (FIG. 2B).
# Aβ40 = assay: Secreted Aβ40 sandwich ELISA of conditioned media; format: cell-based, human
# Description: (§1) The levels of secreted Aβ from CHO-7W cells stably overexpressing APP^751 and CHO-CAB cells that overexpress APP^751 and human BACE1 was quantified by ELISA and viewed by western blot using the monoclonal anti-APP antibody (6E10) that recognizes residues 1-17 of Aβ. Cells (5×10^5) were deposited into 6-well tissue culture dishes in triplicate and allowed to settle and grow for 24 hours. At this time, the media was aspirated and the cells were washed 2× in warm PBS. Fresh media (2 mL) and media supplemented with vehicle or DIF-1 was added to each well. […] Since DIF-1 exerts a cytostatic effect, the cell number was counted for all treatments upon removal of the conditioned media and used to normalize the levels of Aβ. […] The concentration of Aβ40 and Aβ42 was subsequently detected in triplicate using the β-Amyloid 1-40 or 1-42 Colorimetric ELISA kit (Biosource International, Inc.) according to the manufacturer's instructions.
# We then looked at what effect this had on the levels of secreted soluble APP and Aβ production. […] The conditioned media was analyzed using anti-APP antibody 6E10 in order to detect total βP levels and sαAPP levels since it recognizes the amino acids 1-17 of Aβ and thus cannot detect sβAPP. […] The blots were analyzed using a phosphorimager. […]
# cyclin D1 = assay: Cyclin D1 level by western blot
# Description: Following treatment of each cell line with or without DIF-1 (1-30 μM) and/or other inhibitors, cells were lysed in cold RIPA buffer (20 mM Tris-HCl (pH 7.4) buffer containing 150 mM NaCl, 2 mM EDTA, 1% Nonidet® P-40 (NP-40), 50 mM NaF, 1 mM Na3VO4, 1 mM Na2MoO4, 10 mg/ml aprotinin, and 10 mg/ml leupeptin), supplemented with protease inhibitor tablets from Roche (Switzerland). Protein amounts were quantified in triplicate using the BCA assay from Pierce. Equal amounts of protein extracts were fractionated by sodium dodecyl sulfate polyacrylamide gel electrophoresis (SDS-PAGE) and transferred to polyvinylidene difluoride membranes. The membranes were blocked for 1 hour with 5% fat-free powdered milk or 5% BSA, incubated overnight at 4° C. with primary antibodies (1:1000 or 1:5000), washed with TTBS and then incubated at room temperature with appropriate peroxidase-conjugated secondary antibodies (1:5000). Blots were repeatedly washed with TTBS and target proteins were detected using an enhanced chemiluminescence (ECL) system (Amersham Pharmacia Biotech, New Jersey, USA) and XOMAT™ Kodak® film.
# Densitometry analysis of western blot data was performed on a PC computer using QuantityOne® software obtained from Bio-Rad® Laboratories, Inc. (California, USA). Loading variations between western blot lanes were normalized according to the GAPDH signal prior to any experimental quantification. Each western blot presented in the figures is representative of at least five independent experiments to ensure reproducibility of the results unless noted otherwise.
# CHO-CAB cells were treated with lithium chloride (10mM). […] To ensure that the results observed were due to proteasome inhibition, we assessed the effects of lactacystin and ALLN on cyclin D1 levels. […] The data represents that of three separate experiments.
# secreted APP and Aβ = assay: Secreted APP and total Aβ in conditioned media by western blot; format: cell-based, human; settings: CHO-7W, 30 μM, antibody 6E10
# Description: as §1
# We then looked at what effect this had on the levels of secreted soluble APP and Aβ production. […] The conditioned media was analyzed using anti-APP antibody 6E10 in order to detect total βP levels and sαAPP levels since it recognizes the amino acids 1-17 of Aβ and thus cannot detect sβAPP. […] The blots were analyzed using a phosphorimager.
# CHO cells = assay: Cell viability (trypan blue exclusion) and apoptosis (caspase-3); format: cell-based
# From the text: For proliferation assays, 1×10^4 cells were deposited into 24-well plates and treated with vehicle (ethanol or DMSO) or with various amounts of DIF-1 or DIF-3 for a period of 4 days. Cells were harvested after each day by trypsin/EDTA treatment, stained with an equal volume of 0.05% Trypan blue and enumerated in triplicate twice using a haemocytometer. Dead cells are stained blue, but live cells with intact cell membranes are not coloured. Data represents the mean cell number±the standard deviation for at least 3 separate experiments.
# Cells were harvested by the trypsin/EDTA treatment at the times indicated and counted with a haemocytometer.
smiles,measurement,setting,value
"CCCCCC(=O)c1c(O)c(Cl)c(OC)c(Cl)c1O [DIF-1, 1-[3,5-dichloro-2,6-dihydroxy-4-methoxyphenyl]-1-hexanone]","APP ubiquitin conjugates, treatment with both lactacystin and DIF-1",APP ubiquitin-conjugates,only slightly reduced
same,"APP ubiquitin-conjugates, co-treatment with ALLN",APP ubiquitin-conjugates,prevented the accumulation APP ubiqutin-conjugates
same,level of APP ubiquitin-conjugates (single agent),"APP ubiquitin-conjugates; DIF-1 30 μM, lactacystin 10 μM, ALLN 10 μM",decreased levels of APP ubiquitin-conjugates
same,"APLP1 maturation, protein levels, CTF levels",human APLP1,"no effect on APLP1 maturation, protein levels or CTF production"
same,G0/G1 cell cycle block (percentage of cells),CHO-7W cells,50.1%±1.1
same,reduction of secreted Aβ40,"Aβ40; CHO-7W, 30 μM overnight",about 48.5±0.91%
same,reduction of secreted levels of Aβ40,Aβ40; conditioned media from either CHO-7W or CHO-CAB cells,44.2±3.4%
same,reduction of cyclin D1 level,"cyclin D1; 30 μM, 18-20 hours, CHO-CAB cells and mouse embryonic fibroblasts",~82.56±0.74%
same,effect on cyclin D1 level,"cyclin D1; CHO-7W, 30 μM DIF-1 or 250 nM DAPT",markedly decreased
same,"effect on cyclin D1 accumulation, co-treatment with lactacystin or ALLN",cyclin D1; CHO-CAB,inhibited the accumulation of cyclin D1
same,level of total Aβ in conditioned media by western blot,secreted APP and Aβ,reduced the level of total Aβ
same,level of total secreted APP in conditioned media,secreted APP and Aβ,reduced the level of total secreted APP
same,"cell adhesion, cell shape, apoptosis (caspase-3 activation)",CHO cells,"did not effect cell adhesion, cell shape or induce apoptosis"
same,effect on cell viability (trypan blue exclusion),CHO cells; any of the cell lines tested,no observable effect on cell viability
